This is an account of results in publication PMC9502271, “An Investigation of the Anti-Depressive Properties of Phenylpropanoids and Flavonoids in Hemerocallis citrina Baroni” (Molecules, 2022).

Bounds are passed on as bounds.

For experiment [1], the system named is CUMS rats. Description: Sucrose preference test (SPT) in CUMS rats. It counts as in vivo, Male Sprague-Dawley (SD) rats. Conditions: after five weeks of administration by gastric gavage, HFPE, HFFE 25 mg/kg, fluoxetine 10 mg/kg, model group 64.44%. On the procedure: (§1) The Animal Ethics Committee of Shenyang Pharmaceutical University has approved all animal testing (no. SYPU-IACUC-S2021-03-03-202). Male Sprague-Dawley (SD) rats weighing 180–200 g were supplied by Central Animal House of Shenyang Pharmaceutical University (Shenyang, China). […] They were also provided water and a regular food. Before the actual trials start, the rats should acclimate to their new environment for seven days.
(§2) A baseline test was conducted as described below before grouping. Rats were divided into five groups of 10 depending on their weight and sucrose preference. The model group, fluoxetine (10 mg/kg) group, HFPE (25 mg/kg) group, and HFFE (25 mg/kg) group were the four treatment groups using CUMS procedures. An untouchable control group was used. Based on what had been reported in the pharmacological literature the HFPE and HFFE dosages were selected. Two hours before to the daily CUMS procedure and behavioral testing, the rats received the appropriate solutions. […]
(§3) Body weights were recorded every week. […]
The SPT is used to evaluate rodent behavior associated with a human clinical symptom of depression by evaluating the capacity to seek pleasure. […] After that, the amount of liquids consumed was recorded. […]

Experiment [2] deals with CUMS rats. Description: Open-field test (OFT) in CUMS rats. It counts as in vivo, Male Sprague-Dawley (SD) rats. The following applies: 5 min test, HFPE, HFFE 25 mg/kg, fluoxetine 10 mg/kg, compared with model group. On the procedure:
as §1, §2, §3
To assess the effects of HFPE and HFFE on exploratory behavior of rats administered CUMS, OFT carried out in the same manner as literature. Each rat was placed in its own square in the center of a black box that measured 100 cm × 100 cm × 40 cm. […] Both the crossing score and the rearing score for each animal were recorded. […]

Experiment [3] has as its system CUMS rats. Description: Forced swimming test (FST) in CUMS rats. The following applies: HFPE, HFFE 25 mg/kg, fluoxetine 10 mg/kg, compared with CUMS model group. The experiment is classed as in vivo, Male Sprague-Dawley (SD) rats. Here is the method: as §1
as §2, with “solutions. All of the medications were administered through gastric gavage at a volume of 3 mL/kg of body weight and dissolved in sodium carboxymethylcellulose (CMC-Na) at a concentration of 0.3%.” for “solutions.”
as §3
The FST protocol was carried out as described in previous literature. […] The time the rat’s immobility duration in the last five minutes of their six-minute swim in the bucket was recorded. […]

A short description of experiment [4]: Body weight growth rate of CUMS rats. The experiment is classed as in vivo, Male Sprague-Dawley (SD) rats. The following applies: 5 weeks, HFPE, HFFE 25 mg/kg, fluoxetine 10 mg/kg, gastric gavage. Here is the method:
as §1
as §2, with “solutions. All of the medications were administered through gastric gavage at a volume of 3 mL/kg of body weight and dissolved in sodium carboxymethylcellulose (CMC-Na) at a concentration of 0.3%. Days 76–79, 80, and 81 after the final dosage of the medication, respectively, saw the completion of the SPT, OFT, and FST.” for “solutions.”
as §3

For experiment [5], the system named is IL-6. Description: IL-6 level in hippocampus of CUMS rats, ELISA. The experiment is classed as in vivo, Male Sprague-Dawley (SD) rats. The following applies: after 5 weeks of therapy, HFPE, HFFE 25 mg/kg, fluoxetine 10 mg/kg. On the procedure:
as §1, §2
(§4) The serum and hippocampal tissue of rats were taken. […] The optical density value was calculated after the reaction by setting the microtiter plate at 450 nm. The amount of CORT in the serum and the amounts of IL-6, IL-1β, and TNF-α in the hippocampus tissue were calculated using the standard curve.
Background: An ELISA detects its analyte on a solid surface through an enzyme-linked reagent.

The subject of experiment [6] is IL-1β. Description: IL-1β level in hippocampus of CUMS rats, ELISA. It counts as in vivo, Male Sprague-Dawley (SD) rats. The following applies: after 5 weeks of therapy, HFPE, HFFE 25 mg/kg, fluoxetine 10 mg/kg. On the procedure:
as §1, §2, §4

Experiment [7] relates to TNF-α. Description: TNF-α level in hippocampus of CUMS rats, ELISA. It counts as in vivo, Male Sprague-Dawley (SD) rats. The following applies: after 5 weeks of therapy, HFPE, HFFE 25 mg/kg, fluoxetine 10 mg/kg. Here is the method: as §1, §2, §4
Experiment [8] concerns NO production induced by LPS in BV2 cells. Description: Inhibition of NO production in LPS-induced BV2 microglial cells (Griess reagent). It counts as cell-based. Conditions: Mus musculus, BV-2, LPS-induced BV2 cells; compound test concentrations 3.125 to 100 μM; mean ± SD (n = 3); read-out: IC50 NO Inhibitory. Here is the method:
(§5) BV2 microglia cells were purchased from iCell Bioscience Inc. (Shanghai, China). The cells were grown at 37 °C in a humid environment with 5% CO2. In DMEM with 10% fetal bovine serum and 1% penicillin-streptomycin solution, they were maintained alive. The following assays were carried out while the cells were in the exponential growth phase (subcultured 2–3 times).
To determine how much NO is produced, the literature was consulted. Equal parts of the Griess reagent (1% sulfanilamide and 0.1% N-(1-naphthyl) ethylenediamine dihydrochloride in 2.5% phosphoric acid) were combined with the sample-treated cell culture medium for 5 min at room temperature and in the dark. It was determined that the absorbance was at 540 nm using a microplate reader. The trials were conducted simultaneously in triplicate.
For orientation: Nitrite, measured by Griess reagent, commonly stands in for NO production.

For experiment [9], the system named is BV2 microglial cells. Description: CCK8 cytotoxic activity in BV2 microglial cells. The experiment is classed as cell-based. The following applies: Mus musculus, BV-2, CCK8, LPS 1 μg/mL 24 h, compound test concentrations 3.125 to 100 μM, read-out: IC50 Cell Viability. On the procedure:
as §5
The cytotoxic activity was assessed using the CCK8 test. In a 96-well plate, BV2 microglial cells (5 × 10^4 cells/well) were placed in each well and incubated for 12 h. After one hour with each substance, LPS (1 μg/mL) was applied to the BV2 microglia cells for an additional 24 h. The CCK8 solution was then incubated with BV2 cells for 1 h at 37 °C. The absorbance at 450 nm was measured using a plate reader (Molecular Devices, San Jose, CA, USA). The cells that had not been treated were assumed to have a 100% optical density.

In experiment [1], `CNCCC(Oc1ccc(C(F)(F)F)cc1)c1ccccc1` (stereo not drawn) [fluoxetine] had a sucrose preference of 82.40%. In experiment [2], the “OFT rearing score (exploratory activity)” value is “improved the rearing score”. In addition, the FST immobility time entry in experiment [3] is on record as “reduced immobility”. The “growth rate of body weight” value in experiment [4] is recorded as “alleviate the reduction in body weight”. Also, in experiment [5], the “IL-6 level in hippocampus” value was “obviously reduced”. In addition, the “IL-1β level in hippocampus” value in experiment [6] is “obviously reduced”. Also, the “TNF-α level in hippocampus” value in experiment [7] was “obviously reduced”.
For orientation: IC50 means the concentration that gives 50% inhibition. Take `COc1cc(-c2oc3cc(O)cc(O)c3c(=O)c2O[C@@H]2O[C@H](CO[C@@H]3O[C@@H](C)[C@H](O)[C@@H](O)[C@H]3O)[C@@H](O)[C@H](O)[C@H]2O[C@@H]2O[C@@H](C)[C@H](O)[C@@H](O)[C@H]2O)ccc1O` [Compound 29, isorhamnetin-3-O-α-L-rhamnopyranosyl-(1→2)-[α-L-rhamnopyranosyl-(1→6)-β-D-glucopyranoside]]: the 50% inhibitory concentration (IC50) in experiment [8] and in [9] was > 100 µM in each case.
On to `C[C@@H]1O[C@@H](OC[C@H]2O[C@@H](Oc3c(-c4ccc(O)c(O)c4)oc4cc(O)cc(O)c4c3=O)[C@H](O)[C@@H](O)[C@H]2O)[C@H](O)[C@H](O)[C@H]1O` [Compound 21, quercetin-3-O-α-L-rhamnopyranosyl-(1→6)-β-D-galactpyranoside], for which the IC50 in experiment [8] and in [9] was > 100 µM each time.
`C[C@@H]1O[C@@H](OC[C@H]2O[C@@H](Oc3c(-c4ccc(O)cc4)oc4cc(O)cc(O)c4c3=O)[C@H](O)[C@@H](O)[C@H]2O)[C@H](O)[C@H](O)[C@H]1O` [Compound 34, kaempferol-3-O-α-L-rhamnopyranosyl-(1→6)-β-D-galactpyranoside]: the IC50 in experiment [8] and in experiment [9] was > 100 µM each time.
Turning to `O=C(O)/C=C/c1ccc(O)cc1` [Compound 1, (E)-p-coumaric acid], the concentration for half-maximal inhibition (IC50) in experiment [8] and in experiment [9] was > 100 µM throughout.
For the compound `O=C(/C=C\c1ccc(O)cc1)O[C@H]1[C@@H](O)C[C@](O)(C(=O)O)C[C@@H]1O` [Compound 10, 4-O-(Z)-p-coumaroylquinic acid], the half-inhibitory concentration (IC50) in experiment [8] and in experiment [9] was > 100 µM throughout.
Regarding `O=C(/C=C/c1ccc(O)c(O)c1)O[C@@H]1C[C@](O)(C(=O)O)C[C@@H](O)[C@H]1O` [Compound 14, chlorogenic acid], the IC50 in experiment [8] and in experiment [9] was > 100 µM throughout.
With `COC(=O)[C@@]1(O)C[C@H](OC(=O)/C=C\c2ccc(O)cc2)[C@H](O)[C@@H](O)C1` [Compound 6, 3-O-(Z)-p-coumaroylquinic acid methyl ester], the IC50 in experiment [8] and in experiment [9] was > 100 µM each time.
